Experimental data from patent US7851474B2, “Dipiperazinyl ketones and related analogues” (Neurogen Corporation, priority 2005, dated 2010).

Each compound was assayed against T1, chimeric human H3 receptor (Homo sapiens, UniProt Q9Y5N1, E19D) (assay: Chimeric human H3 receptor GTP binding assay (agonist-stimulated GTP-gamma35S binding, Example 7)). Conditions: "*" in Ki of Table II; assay of Example 7; read-out: Ki.
T1 construct: made in house; host or cells: Sf9 insect cells (baculovirus infection); P2 membrane preparation
T1 sequence (Q9Y5N1 with tags, fused parts or gaps E19D): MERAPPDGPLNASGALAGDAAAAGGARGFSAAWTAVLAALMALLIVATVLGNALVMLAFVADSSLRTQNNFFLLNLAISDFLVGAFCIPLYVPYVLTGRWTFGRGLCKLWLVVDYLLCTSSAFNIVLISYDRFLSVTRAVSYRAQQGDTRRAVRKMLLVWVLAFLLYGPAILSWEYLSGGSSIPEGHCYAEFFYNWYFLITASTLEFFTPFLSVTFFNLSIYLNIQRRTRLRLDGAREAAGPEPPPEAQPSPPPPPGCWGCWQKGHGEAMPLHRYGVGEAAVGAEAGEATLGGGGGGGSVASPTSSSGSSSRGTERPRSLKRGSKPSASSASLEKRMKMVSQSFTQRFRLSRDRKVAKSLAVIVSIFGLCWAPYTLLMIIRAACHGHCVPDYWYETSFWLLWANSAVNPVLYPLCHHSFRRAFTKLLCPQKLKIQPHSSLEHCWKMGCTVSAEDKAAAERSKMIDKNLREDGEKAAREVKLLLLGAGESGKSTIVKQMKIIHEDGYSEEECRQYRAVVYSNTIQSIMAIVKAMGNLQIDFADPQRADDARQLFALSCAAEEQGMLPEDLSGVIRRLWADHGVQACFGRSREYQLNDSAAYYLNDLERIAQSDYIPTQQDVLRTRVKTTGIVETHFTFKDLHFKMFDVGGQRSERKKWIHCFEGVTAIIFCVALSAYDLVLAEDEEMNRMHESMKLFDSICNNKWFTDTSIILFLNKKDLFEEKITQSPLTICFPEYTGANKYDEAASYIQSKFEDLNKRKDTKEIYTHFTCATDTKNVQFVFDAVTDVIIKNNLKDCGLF
Format: biochemical
Procedure, shortened: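 Sf9 membranes co-expressing the chimeric receptor and heterotrimeric G-protein subunits, 35 μg protein per tube, in pH 7.4 Tris buffer with 10 μM GDP. Test compounds at 10^−10 to 10^−6 M with 1 μM histamine, 60 min at room temperature. Filter-bound GTP-gamma^35S read by scintillation; IC50 from non-linear regression of dose-response curves.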

| Ki | Compound |
| --- | --- |
| < 1 µM | O=C(CN1CCC2(CC1)CN(Cc1ccccc1)c1cccnc12)N1CCN(C2CCC2)CC1 [Compound 490, 1′-benzyl-1-[2-(4-cyclobutylpiperazin-1-yl)-2-oxoethyl]-1′,2′-dihydrospiro[piperidine-4,3′-pyrrolo[3,2-b]pyridine]] |
| < 1 µM | O=C(N1CCN(C2CCC2)CC1)N1CCC2(CC1)C(=O)N(Cc1ccccc1)c1ccccc12 [Compound 488, 1-benzyl-1′-[(4-cyclobutylpiperazin-1-yl)carbonyl]spiro[indole-3,4′-piperidin]-2(1H)-one] |

Same assay, conditions: Table II "Ki", symbol "*": Ki in the assay of Example 7; read-out: Ki

| Ki | Compound |
| --- | --- |
| < 1 µM | CCC(C)N1CCN(C(=O)CN2CCN(c3cc(Cl)ccc3OC)CC2)CC1 (centres unmarked) [Compound 884, 1-sec-butyl-4-{[4-(5-chloro-2-methoxyphenyl)piperazin-1-yl]acetyl}piperazine] |
| < 1 µM | Cc1ccc(N2CCN(CC(=O)N3CCN(C4CCCC4)CC3)CC2)c(C)c1 [Compound 834, 1-cyclopentyl-4-{[4-(2,4-dimethylphenyl)piperazin-1-yl]acetyl}piperazine] |
| < 1 µM | O=C(CN1CCN(c2cnc(-c3ccc(Cl)cc3F)cn2)CC1)N1CCN(C2CCC2)CC1 [Compound 902, 2-(4-chloro-2-fluorophenyl)-5-{4-[2-(4-cyclobutylpiperazin-1-yl)-2-oxoethyl]piperazin-1-yl}pyrazine] |
| < 1 µM | CCC(C)N1CCN(C(=O)CN2CCN(c3ccc(OC)cc3OC)CC2)CC1 (centres unmarked) [Compound 862, 1-sec-butyl-4-{[4-(2,4-dimethoxyphenyl)piperazin-1-yl]acetyl}piperazine] |
| < 1 µM | O=C(CN1CCN(c2ccccc2)CC1)N1CCN(C2CCCCC2)CC1 [Compound 805, 1-cyclohexyl-4-[(4-phenylpiperazin-1-yl)acetyl]piperazine] |
| < 1 µM | O=C(CN1CCN(c2cccc(F)c2)CC1)N1CCN(C2CCCCC2)CC1 [Compound 819, 1-cyclohexyl-4-{[4-(3-fluorophenyl)piperazin-1-yl]acetyl}piperazine] |

Same assay, conditions: Table II, "*" in Ki; assay of Example 7; read-out: Ki

| Ki | Compound |
| --- | --- |
| < 1 µM | CCOc1ccccc1-c1ccc(N2CCN(CC(=O)N3CCN(C4CCC4)CC3)CC2)cc1 [Compound 700, 1-cyclobutyl-4-{[4-(2′-ethoxybiphenyl-4-yl)piperazin-1-yl]acetyl}piperazine] |
| < 1 µM | CC1CCN(C(=O)c2cccc(N3CCN(CC(=O)N4CCN(C5CCC5)CC4)CC3)c2)CC1 [Compound 642, 1-cyclobutyl-4-[(4-{3-[(4-methylpiperidin-1-yl)carbonyl]phenyl}piperazin-1-yl)acetyl]piperazine] |
| < 1 µM | COc1ccccc1-c1ccc(N2CCN(CC(=O)N3CCN(C4CCC4)CC3)CC2)cc1 [Compound 712, 1-cyclobutyl-4-{[4-(2′-methoxybiphenyl-4-yl)piperazin-1-yl]acetyl}piperazine] |
| < 1 µM | CCOc1ccc(-c2ccc(N3CCN(CC(=O)N4CCN(C5CCC5)CC4)CC3)cc2)cc1 [Compound 769, 1-cyclobutyl-4-{[4-(4′-ethoxybiphenyl-4-yl)piperazin-1-yl]acetyl}piperazine] |

Same assay, conditions: Table II; assay of Example 7; "*" in Ki; read-out: Ki

| Ki | Compound |
| --- | --- |
| < 1 µM | CN(C)c1cccc(-c2ccc(N3CCN(CC(=O)N4CCN(C5CCC5)CC4)CC3)nn2)c1 [Compound 996, 3-(6-{4-[2-(4-cyclobutylpiperazin-1-yl)-2-oxoethyl]piperazin-1-yl}pyridazin-3-yl)-N,N-dimethylaniline] |
| < 1 µM | O=C(CN1C=CC2(CC1)c1ccccc1C(=O)N2Cc1ccccc1)N1CCN(C2CCC2)CC1 (centres unmarked) [Compound 980, 2-benzyl-1′-[2-(4-cyclobutylpiperazin-1-yl)-2-oxoethyl]-2′,′3-dihydro-1′H-spiro[isoindole-1,4′-pyridin]-3(2H)-one] |
| < 1 µM | O=C(CN1CCN(c2cnc(-c3cc(F)cc(F)c3)cn2)CC1)N1CCN(C2CCC2)CC1 [Compound 965, 2-{4-[2-(4-cyclobutylpiperazin-1-yl)-2-oxoethyl]piperazin-1-yl}-5-(3,5-difluorophenyl)pyrazine] |
| < 1 µM | CCc1cccc(-c2ccc(N3CCN(CC(=O)N4CCN(C5CCC5)CC4)CC3)nn2)c1 [Compound 1019, 3-{4-[2-(4-cyclobutylpiperazin-1-yl)-2-oxoethyl]piperazin-1-yl}-6-(3-ethylphenyl)pyridazine] |
| < 1 µM | CNC(=O)c1ccc(N2CCN(CC(=O)N3CCN(C4CCC4)CC3)CC2)cc1 [Compound 1122, 4-{1-[2-(4-cyclobutylpiperazin-1-yl)-2-oxoethyl]piperazin-1-yl}-N-methylbenzamide] |
| < 1 µM | CN(C(=O)c1ccc(N2CCN(CC(=O)N3CCN(C4CCC4)CC3)CC2)cc1)C1CCCCC1 [Compound 1128, 4-{4-[2-(4-cyclobutylpiperazin-1-yl)-2-oxoethyl]piperazin-1-yl}-N-cyclohexyl-N-methylbenzamide] |
| < 1 µM | O=C(CN1CCN(c2ccc(-c3ccc(F)c(Cl)c3)nn2)CC1)N1CCN(C2CCC2)CC1 [Compound 987, 3-(3-chloro-4-fluorophenyl)-6-{4-[2-(4-cyclobutylpiperazin-1-yl)-2-oxoethyl]piperazin-1-yl}pyridazine] |
| < 1 µM | COc1ccc(N2CCN(CC(=O)N3CCN(C4CCCCC4)CC3)CC2C)cc1 (centres unmarked) [Compound 1106, 4-[2-(4-cyclohexylpiperazin-1-yl)-2-oxoethyl]-1-(4-methoxyphenyl)-2-methylpiperazine] |
| < 1 µM | Cc1cc(C)cc(-c2ccc(N3CCN(CC(=O)N4CCN(C5CCC5)CC4)CC3)nn2)c1 [Compound 1016, 3-{4-[2-(4-cyclobutylpiperazin-1-yl)-2-oxoethyl]piperazin-1-yl}-6-(3,5-dimethylphenyl) pyridazine] |
| < 1 µM | O=C(CN1CCN(c2ccc(C(=O)N3CCSCC3)cn2)CC1)N1CCN(C2CCC2)CC1 [Compound 1101] |
| < 1 µM | O=C(NCC(F)(F)F)c1cccc(N2CCN(CC(=O)N3CCN(C4CCC4)CC3)CC2)c1 [Compound 1077, 3-{4-[2-(4-cyclobutylpiperazin-1-yl)-2-oxoethyl]piperazin-1-yl}-N-(2,2,2-trifluoroethyl)benzamide] |
| < 1 µM | COc1ccc(N2CCN(CC(=O)N3CCN(C(C)C)CC3)CC2C)cc1 (centres unmarked) [Compound 1111, 4-[2-(4-isopropylpiperazin-1-yl)-2-oxoethyl]-1-(4-methoxyphenyl)-2-methylpiperazine] |
| < 1 µM | CCc1ccc(-c2ccc(N3CCN(CC(=O)N4CCN(C5CCC5)CC4)CC3)nn2)cc1 [Compound 1017, 3-{4-[2-(4-cyclobutylpiperazin-1-yl)-2-oxoethyl]piperazin-1-yl}-6-(4-ethylphenyl)pyridazine] |

Same assay, conditions: assay of Example 7; "*" in Ki of Table II; read-out: Ki

| Ki | Compound |
| --- | --- |
| < 1 µM | CC(C)c1ccc(C(=O)NC2CCN(CC(=O)N3CCN(C4CCC4)CC3)C2)cc1 (centres unmarked) [Compound 1235, N-{1-[2-(4-cyclobutylpiperazin-1-yl)-2-oxoethyl]pyrrolidin-3-yl)-4-isopropylbenzamide] |
| < 1 µM | N#Cc1ccc(N2CCN(CC(=O)N3CCN(C4CCCCC4)CC3)CC2)cc1 [Compound 1147, 4-{4-[2-(4-cyclohexylpiperazin-1-yl)-2-oxoethyl]piperazin-1-yl}benzonitrile] |
| < 1 µM | CC(C)(C)c1ccc(C(=O)NC2CCN(CC(=O)N3CCN(C4CCC4)CC3)C2)cc1 (centres unmarked) [Compound 1152, 4-tert-butyl-N-{1-[2-(4-cyclobutylpiperazin-1-yl)-2-oxoethyl]pyrrolidin-3-yl}benzamide] |
| < 1 µM | CC(C)(C)CC(=O)NC1CCN(CC(=O)N2CCN(C3CCC3)CC2)CC1 [Compound 1216, N-{1-[2-(4-cyclobutylpiperazin-1-yl)-2-oxoethyl]piperidin-4-yl}-3,3-dimethylbutanamide] |
| < 1 µM | CCC(C)N1CCN(C(=O)CN2CCN(c3ccc(C#N)cc3)CC2)CC1 (centres unmarked) [Compound 1150, 4-{4-[2-(4-sec-butylpiperazin-1-yl)-2-oxoethyl]piperazin-1-yl}benzonitrile] |
| < 1 µM | O=C(CN1CCN(c2ccc(-c3cncnc3)cc2)CC1)N1CCN(C2CCC2)CC1 [Compound 1154, 5-(4-{4-[2-(4-cyclobutylpiperazin-1-yl)-2-oxoethyl]piperazin-1-yl}phenyl)pyrimidine] |
| < 1 µM | O=C(CC1CCCC1)NC1CCN(CC(=O)N2CCN(C3CCC3)CC2)CC1 [Compound 1208, N-{1-[2-(4-cyclobutylpiperazin-1-yl)-2-oxoethyl]piperidin-4-yl}-2-cyclopentylacetamide] |
| < 1 µM | O=C(CCC1CCCC1)NC1CCN(CC(=O)N2CCN(C3CCC3)CC2)CC1 [Compound 1215, N-{1-[2-(4-cyclobutylpiperazin-1-yl)-2-oxoethyl]piperidin-4-yl}-cyclopentylpropanamide] |
| < 1 µM | O=C1CCCc2cc(N3CCN(CC(=O)N4CCN(C5CCC5)CC4)CC3)ccc21 [Compound 1165, 6-{4-[2-(4-cyclobutylpiperazin-1-yl)-2-oxoethyl]piperazin-1-yl}-3,4-dihydronaphthalen-1(2H)-one] |

Same assay, conditions: assay of Example 7; symbol * in column headed Ki of Table II; read-out: Ki

| Ki | Compound |
| --- | --- |
| < 1 µM | CCC(C)N1CCN(C(=O)CN2CCN(c3ccc(C(C)=O)cc3)CC2)CC1 (centres unmarked) [Compound 330, 1-(4-{4-[2-(4-sec-butylpiperazin-1-yl)-2-oxoethyl]piperazin-1-yl}phenyl)ethanone] |
| < 1 µM | CCN1CCN(C(=O)CN2CCN(c3ccc(OC)c(OC)c3)CC2)CC1 [Compound 284, 1-(3,4-dimethoxyphenyl)-4-[2-(4-ethylpiperazin-1-yl)-2-oxoethyl]piperazine] |
| < 1 µM | CC(O)c1ccc(N2CC3CC2CN3CC(=O)N2CCN(C3CCC3)CC2)cc1 (centres unmarked) [Compound 331, 1-(4-{5-[2-(4-cyclobutylpiperazin-1-yl)-2-oxoethyl]-2,5-diazabicyclo[2.2.1]hept-2-yl}phenyl)ethanol] |
| < 1 µM | CC(=O)c1ccc(N2CCN(CC(=O)N3CCN(C4CCC4)CC3)CC2=O)cc1 [Compound 333, 1-(4-acetylphenyl)-4-[2-(4-cyclobutylpiperazin-1-yl)-2-oxoethyl]piperazin-2-one] |
